Tested on: male Varroa mites
Test: mating bioassay: male response to a female deutochrysalis dummy
Assay type: in vivo, Varroa destructor
Details: pure substances tested at 1, 10, 100 and 1000 ng
Protocol: Male and female Varroa mites were obtained from brood combs of heavily infested Apis mellifera colonies at the Apicultural State Institute, University of Hohenheim in Germany. Sexually mature males and freshly molted adult females as well as female deutochrysalis were collected from brood cells 8 to 9 days after capping. Female deutochrysales and freshly molted adult female mites were transferred into queen cell cups (Nicot System®, Karl Jenter, Metzingen) and kept at 28-30° C. for a maximum of 2 hours in order to prevent a decrease in vitality and mobility.
The responses of male Varroa mites to extracts, fractions, and pure substances were measured by using the “mating bioassay”: total extracts, fractions and pure substances were applied to a piece of filter paper (size: 1.5 mm×15 mm) with a 10 μl Hamilton syringe. The filter paper was folded in the middle and placed at the edge of the plastic cell cups (Nicot System®, Karl Jenter, Metzingen, 9 mm inner diameter) that served as a test arena. A living female deutochrysalis was placed at the bottom of the cell cup at 3.5 mm distance to the filter paper. […] After three tests, the dummies were replaced by new ones. The male responses towards the deutochrysalis were categorized as follows: (1) movement towards/around the deutochrysalis and palpating it, (2) mounting the dorsum of the deutochrysalis and (3) copulation attempts on the venter of the deutochrysalis. The duration of each of these behaviours was recorded over a period of 5 minutes using the Observer 2.0 software (Noldus Information Technology). All tests were performed at temperatures of 33-34° C. at the bottom of the test arena.
The extract was applied to the filter paper in doses of 2 female equivalents; in control tests the filter paper was treated with ether only. Pentane and ether fractions were tested in concentrations of 5 female equivalents in the same way. The higher concentration was applied in order to equalize possible losses of active substances during the column fractionation. Single substances that were identified from the active fraction (see 2.6) were purchased (Sigma Aldrich, GC grade), dissolved in diethyl ether and were tested in doses of 1 ng, 10 ng, 100 ng and 1000 ng.
Behavioural data were analyzed with the SPSS 15.0 statistics software. One Way ANOVA was performed to evaluate the male response toward the female deutochrysalis while being exposed to total extracts, fractions or pure substances. Differences between groups with p<0.05 were considered statistically significant.

| Structure (SMILES) | copulatory responses / male mating behaviour to pure substances | dosage of maximum copulatory responses [ng] | dosage of lowest copulatory responses [ng] |
| --- | --- | --- | --- |
| CCCCCCCC/C=C\CCCCCCCC(=O)OCC [ethyl oleate] | the same trend was evident, albeit without significant differences |  |  |
| CCCCCCCCCCCCCCCC(=O)OCC [ethyl palmitate] |  | 10 |  |
| CCCCCCCCCCCCCCCCCC(=O)OCC [ethyl stearate] |  | 10 |  |
| CCCCCCCC/C=C\CCCCCCCC(=O)O [oleic acid] | highest copulatory responses | 10 | 1000 |
| CCCCCCCCCCCCCCCC(=O)O [palmitic acid] |  | 10 |  |
| CCCCCCCCCCCCCCCCCC(=O)O [stearic acid] | lower compared to the other compounds | 1 |  |
